test: Storage stability of the tablets, solid form of the active ingredients by powder XRD; format: physicochemical; conditions: after storage in Alu-Alu blister, three months at 40° C./75% RH
Protocol: The XRD measurements were performed using X-ray source with Cu K-alpha radiation, Empyrean system (or equivalent), PIXcel detector, divergence slit 0.25° fixed, anti-scattering slit 0.5°, soller slits 2×0.02 radians, Nickel filter to suppress back ground and Cu K-beta components, current 40 mA, voltage 45 kV, 2° - 40 ° 2θ, spinning 30 RPM, step size 0.013° with total measurement time 1 Hr at room temperature. 1. Grind about two tablets to fine powder using Agate mortar and pestle gently. Prepare the sample (approx. 350 mg) using PANalytical sample preparation kit by ‘Back loading technique’. The sample surface should be smooth and in parallel to sample holder surface. Clean the outer edges of the holder with tissue paper to avoid sample contaminations. 2. Place the prepared sample holder carefully on the sample stage of the XRD instrument and analyze as per the above XRD method conditions at room temperature.

Row | change of solid form of the active ingredient in the tablets, powder XRD | SMILES
1 | no crystallization | CCCCC(=O)N(Cc1ccc(-c2ccccc2-c2nnn[n-]2)cc1)[C@H](C(=O)[O-])C(C)C.CCOC(=O)[C@H](C)C[C@@H](Cc1ccc(-c2ccccc2)cc1)NC(=O)CCC(=O)[O-].O.[Na+].[Na+].[Na+] [LCZ696]
2 | no polymorph conversion or amorphization | CCOC(=O)[C@H](C)C[C@@H](Cc1ccc(-c2ccccc2)cc1)NC(=O)CCC(=O)O [sacubitril monosodium]
3 | no crystallization | CCCCC(=O)N(Cc1ccc(-c2ccccc2-c2nnn[nH]2)cc1)[C@H](C(=O)O)C(C)C [valsartan disodium]
